# Patent US8318787B2, “Prodrugs of (3,5-bis(4-fluorophenyl)tetrahydro-1H-oxazolo[3,4-C]oxazol-7A-yl)methanol and derivatives thereof” (University of Kansas, priority 2005, dated 2012)
# pEC50: −log10 of the molar value.
# Experiments:
# microtubules [1] = assay: Competitive binding of paclitaxel and TH-237A to microtubules; conditions: addition of 40 μM Taxol
# Method: Competitive binding of paclitaxel and TH-237A—Microtubules were formed from MTP (2 mg/ml) in the presence of 0.5 mM GTP. […] […] After 10 minutes at 37° C., the microtubules were collected by centrifugation and dissolved in 0.1 ml of 0.1 M NaOH. Protein and radioactivity determinations of the dissolved microtubules were performed.
# cellular microtubules = assay: Immunostaining of cellular microtubules; type: cell-based; conditions: 1 and 10 μM
# Method: Immunostaining of cellular microtubules—Cells were grown in monolayer on sterile slide cover slips in a 6-well plate and treated with paclitaxel or TH-237A for different periods of time. The cover slips were washed with phosphate-buffered saline and the cells fixed by treatment with 95% EtOH at −20° C. for 30 minutes. The cover slips were placed in a humidified chamber and treated with the primary antibody (a mouse anti-β-tubulin monoclonal antibody) for 2 hours to overnight at room temperature. This was followed by washing with phosphate-buffered saline and treatment with the secondary antibody (FITC goat anti-mouse) for 1 hour at room temperature. Cover slips were examined on a Nikon Optiphot fluorescence microscope.
# microtubules [2] = assay: Cold stability of microtubules; type: biochemical; conditions: 25 μM compound, on ice 15 minutes
# Method: In another experiment, the cold stability of microtubles was investigated. Microtubules were formed from MAP-free tubulin (2 mg/ml) and MTP (2 mg/ml) at 37° C. A sample was centrifuged at 50,000×g to determine the amount of polymer formed. To three other samples DMSO, 20 μM paclitaxel or 400 μM TH-237A was added, and the samples were placed on ice for 15 minutes before centrifuging at 4° C. Pellets were dissolved in 0.1 ml of 0.1 M NaOH and protein determinations were made on the supernatants and pellets. Cold-induced depolymerization leads to an increase in the supernatant protein concentration.
# in vitro = conditions: bovine, pH 7.4
# Method: The BBMECs were grown on 0.4 μm polycarbonate membranes. […] Transport studies were performed in pH 7.4 standard buffer solutions, consisting of either Hank's balanced salt solution (HBSS) or phosphate buffered saline (PBS) supplemented with 0.63 mM CaCl2, 0.74 mM MgSO4, 5.3 mM glucose and 0.1 mM ascorbic acid (PBSA). Briefly, all studies were performed in 3 ml of PBSA in each donor and receiver chamber of the side-by-side diffusion chambers and stirred at 600 rpm at 37° C. The cells were allowed to equilibrate in PBSA for 30 minutes prior to each experiment and oriented such that apical or blood side of the cells face the donor chamber and the basolateral or brain side of the cells adhere to the polycarbonate membranes and face the receiver chamber of the diffusion apparatus. At each time point, a 100 μl sample was taken from the receiver compartment and immediately replaced with an equal volume of PBSA. The transport studies were performed in the presence or absence of CsA (5-10 μM). Monolayers were checked for trypan blue exclusion after experiments as well to assess general cell viability. The permeability of all monolayers used in these experiments was monitored for [^14C] sucrose leakage as a measure of potential TH-237A-induced loss of integrity. The radioactivity was quantified using liquid scintillation spectrometry.
# Tubulin [3] = assay: Tubulin assembly centrifugation assay; type: biochemical; conditions: 1.0 μM compound
# Method: In this example, the mechanism of TH-237A's neuroprotective effects was investigated. In a first experiment, the microtubule-stabilizing ability of TH-237A was investigated using a tubulin assembly centrifugation assay. Tubulin (1.0 mg/ml), free of microtubule-associated proteins (“MAPs”), was incubated in PEM buffer (0.1 M Pipes, 1 mM EGTA, 1 mM MgSO4, pH 6.9), 4% DMSO, various concentrations of paclitaxel or TH-237A, with or without 0.5 mM GTP, in a total volume of 0.1 ml for 15 minutes at 37° C. Samples were centrifuged at 50,000×g for 4 minutes in a Beckman TL-100 ultracentrifuge. Protein determinations were performed on the supernatants and the amount of polymer formed was calculated from the difference between the starting concentration and the supernatant concentration. The maximum concentration of polymer was taken to be that formed at 25 μM paclitaxel. An experiment was also done using a tubulin preparation containing microtubule-associated proteins (“MTP”) at a protein concentration of 2 mg/ml without GTP.
# primary cortical neurons = assay: Neuroprotection of primary cortical neurons exposed to Aβ peptides (Live/Dead assay); type: cell-based; conditions: Rattus norvegicus, Primary cortical neuron, Aβ25-35, 48 hours, read-out: EC50 (concentration that lead to a 50% increase in neuronal survival in the presence of the Aβ peptide)
# Method: This example illustrates the neuroprotective effects of TH-237A in neuronal cells after exposure to Aβ peptides. To prepare the primary neurons, dissociated cortical cell cultures were established from embryonic day 18 rat fetuses recovered from pregnant Sprague Dawley rats (Harlan Sprague Dawley, Inc., Indianapolis, Ind.) as described previously (Michaelis et al., 1994). Pups were delivered by cesarean section while the dam was anesthetized with pentobarbital (140 mg/kg, i.p.), and the brains were recovered according to National Institutes of Health-approved protocols. After the final precipitation step, neurons were suspended in fresh DMEM/F12 (Sigma Chemical Co. St. Louis, Mo.) with 10% fetal bovine serum (Atlanta Biologicals, Atlanta, Ga.) and plated at a density of 2.5×10^5 cells in 35 mm glass bottom microwell dishes (Mat-Tek Co., Ashland, Mass.), coated with poly-D-lysine. Serum-containing medium was removed after 24 hours, and the cells were maintained in serum-free DMEM/F12 containing the N2 supplements. […]
# After five days in culture, the primary neurons were exposed to either Aβ25-35 or Aβ1-42 in the presence or absence of concentrations of TH-237A ranging from 0.5 to 60 nM. […] Each batch of Aβ peptide was analyzed for β-sheet formation by circular dichroism, but no effort was made to separate oligomers from fibrils. […]
# The effects of the Aβ peptides and TH-237A were primarily determined by monitoring neuronal cell survival using the Live/Dead assay as previously described (Michaelis et al., 1998; Michaelis et al., 2005). […] The number of viable (green) and dead (red) neurons was determined by counting the cells, and this was done in 6-12 microscopic fields per culture dish in duplicate dishes for each treatment. […] Thus, approximately 1500 neurons were scored under each treatment condition. The fraction of viable cells in each field was calculated based on the total number of cells counted in each field. Raw data from each experiment were combined and the significance of differences between cultures exposed to various treatments was determined using Student's t test. […]
# [4] = In vivo pharmacokinetics in plasma and brain; set-up: species or system Male Balb/C mice; conditions: mice, 10 mg/Kg in Captisol, i.v. or s.c.
# Method: In this example, the pharmacokinetics of TH-237A were evaluated in vivo. Male Balb/C mice were dosed with TH-237A (10 mg/Kg in Captisol®) via either an i.v. injection into the tail vein or via subcutaneous (sc) injection. At multiple time points ranging from 0 to 240 minutes, 12 mice (n=6, i.v.; n=6, s.c.) were anesthetized with isoflurane, and blood was collected via cardiac puncture. Mice were perfused with 30 mL of saline to wash remaining blood from the vessels, and the brain tissue was harvested. The levels of TH-237A in plasma and brain were quantified using mass spectrometric methods.
# Sample preparations. Brain homogenate was prepared in a 1:4 ratio with deionized water. A sonic dismembrator was pulsed at 30% power until the sample was liquified. Aliquots of mouse plasma (0.05 mL) or mouse brain homogenates (0.25 g) were spiked with 50 ng of internal standard (deuterated TH-237A) and vortexed for 10 seconds. The TH-237A and internal standard were extracted using 1.3 mL of methyl t-butyl ether. Samples were vortexed for 5 minutes and centrifuged. The supernatant was transferred to 2 mL centrifuge tubes and evaporated to dryness. The sample was reconstituted in 0.2 mL of sample solvent, vortexed and centrifuged before a 10 uL aliquot was injected on to the LC/MS system for analysis.
# Analysis of TH-237A. The levels of the drug in the samples were determined by means of HPLC/MS. […]
# [5] = tested on: P-glycoprotein efflux transporter; assay: Rhodamine 123 accumulation assay in bovine brain microvessel endothelial cells; type: in vitro ADME; conditions: BBMECs
# Method: First, a rhodamine 123 assay was used for to assess uptake of the test compound in brain endothelial cells. Bovine brain microvessel endothelial cells (“BBMECs”) were isolated and grown in primary culture on 12 well cluster dishes at a density of 50,000 cells/cm^2 essentially as described previously (Rice et al., 2005). The culture medium was changed every other day after seeding until a confluent monolayer was formed as determined by light microscopy. Experiments were performed in phosphate buffered saline supplemented with calcium and glucose (PBSA), pH 7.4. Briefly, the growth medium was first aspirated off, and the cells were rinsed three times with pre-warmed (37° C.) PBSA. […] Cell lysates were assayed using a microplate fluorescence reader (Bio-Tek Instruments, Winooski, Vt.) at excitation/emission wavelengths of 485 nm/520 nm, then quantified against standard curves of rhodamine 123 in lysing solution. The fluorescence of the cell lysates was corrected for autofluorescence of untreated cells. The protein content of each monolayer was then determined using the BCA protein assay reagent kit. Results were expressed as total nanomoles of rhodamine 123 accumulation per mg cellular protein for agents tested at 10 μM.
# Tubulin [6] = conditions: reported by Shintani et al. 1997; cited from earlier work
Structure (SMILES),displacement of bound labeled TH-237A (100 μM) from microtubules (microtubules [1]),polymerization of the microtubules in situ in the cells (cellular microtubules),cold-induced depolymerization of microtubules prevented (microtubules [2]),Papp (in vitro),% of tubulin polymerized (Tubulin [3]),pEC50 (primary cortical neurons),plasma half-life [4],amount of drug entering the plasma ([4]; regardless of route),effect on rhodamine 123 accumulation / P-glycoprotein substrate [5],stimulation of tubulin polymerization relative to paclitaxel (Tubulin [6])
"CC(=O)O[C@H]1C(=O)[C@@]2(C)[C@H]([C@H](OC(=O)c3ccccc3)[C@]3(O)C[C@H](OC(=O)[C@H](O)[C@@H](NC(=O)c4ccccc4)c4ccccc4)C(C)=C1C3(C)C)[C@]1(OC(C)=O)CO[C@@H]1C[C@@H]2O [Taxol, Paclitaxel]",about 5%,clearly evident,~100%,5 ×10⁻⁶ cm/s,75%,–,–,–,–,–
"OC[C@]12CO[C@H](c3ccc(F)cc3)N1[C@H](c1ccc(F)cc1)OC2 [TH-237A, (3R,5S,7as)-(3,5-bis(4-fluorophenyl)tetrahydro-1H-oxazolo[3,4-c]oxazol-7a-yl)methanol]",–,–,–,270 ×10⁻⁶ cm/s,–,8.30,on the order of hours,a very significant amount of the drug enters the plasma,not a substrate for the P-glycoprotein efflux transporter,–
"OCC12CO[C@H](c3ccc(F)cc3)N1[C@@H](c1ccc(F)cc1)OC2 [GS-164, (3R,5R)-(3,5-bis(4-fluorophenyl)tetrahydro-1H-oxazolo[3,4-c]oxazol-7a-yl)methanol]",–,–,–,–,–,–,–,–,–,one-tenth
